This note sets out measurements from the supplement of paper PMC10307832.

Assay in all cases: relative viability (nuclei count vs DMSO), 5 days (fraction); higher = more cells survive
Compound in test [1]: CC1CC(=O)N(C2=CN=C(N=C2N1C3CCCC3)NC4=C(C=C(C=C4)C(=O)NC5CCN(CC5)C)OC)C [NPK76-II-72-1] + C[C@@H](Oc1cc(-c2cnn(C3CCNCC3)c2)cnc1N)c1c(Cl)ccc(F)c1Cl [Crizotinib] (partner 1 µM)
Summed up: (§1)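 Lung cancer cell lines were seeded in 1536-well plates and dosed by pin tool the next day, with either a single drug or a fixed anchor-drug dose combined with five library-drug doses (not always all listed) spaced in √10 steps. Five days later, one step fixed the cells and stained their nuclei (final 0.05% Triton X-100, 1% formaldehyde, 1 ug/ml Hoechst), and nuclei were counted on 4× images. Relative viability is the nuclei count in treated wells divided by the count in vehicle wells, and each value is the median of duplicate plates.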

Compound in test [2]: CC1CC(=O)N(C2=CN=C(N=C2N1C3CCCC3)NC4=C(C=C(C=C4)C(=O)NC5CCN(CC5)C)OC)C [NPK76-II-72-1] + Cc1nc(Nc2ncc(C(=O)Nc3c(C)cccc3Cl)s2)cc(N2CCN(CCO)CC2)n1 [Dasatinib] (partner 0.075 µM)
Summed up: as §1

Compound in test [3]: CC1CC(=O)N(C2=CN=C(N=C2N1C3CCCC3)NC4=C(C=C(C=C4)C(=O)NC5CCN(CC5)C)OC)C [NPK76-II-72-1] + Nc1nc2[nH]cc(CCc3ccc(C(=O)N[C@@H](CCC(=O)O)C(=O)O)cc3)c2c(=O)[nH]1 [Pemetrexed] (partner 0.2 µM)
In a few lines: as §1

Compound in the test “BI-2536 + Luminespib”: CC[C@@H]1C(=O)N(C)c2cnc(Nc3ccc(C(=O)NC4CCN(C)CC4)cc3OC)nc2N1C1CCCC1 [BI-2536] + CCNC(=O)c1noc(-c2cc(C(C)C)c(O)cc2O)c1-c1ccc(CN2CCOCC2)cc1 [Luminespib] (partner 0.01 µM)
In a few lines: as §1

For UMC-11, the relative viability in test [1] (first compound 0.01 µM) worked out at 0.622; in test [1] (first compound 0.03162 µM) it was 0.574; in test [1] (first compound 0.1 µM), 0.669; in test [1] (first compound 0.3162 µM) it was 0.532; in test [1] (first compound 1 µM) it was 0.707; in test [2] (first compound 0.01 µM), 0.45. For the same cell line, the relative viability in test [2] (first compound 0.03162 µM) was 0.509; in test [2] (first compound 0.1 µM), 0.441; in test [2] (first compound 1 µM), 0.447; in test [3] (first compound 0.01 µM) it was 0.79; in test [3] (first compound 0.03162 µM), 0.869; in test [3] (first compound 0.1 µM), 0.768. Further, the relative viability in test [3] (first compound 0.3162 µM) came to 0.728; in test [3] (first compound 1 µM), 0.697; in the test with BI-2536 + Luminespib (first compound 0.01 µM) it was 0.925; with BI-2536 + Luminespib (first compound 0.03162 µM) it was 0.725; with BI-2536 + Luminespib (first compound 0.1 µM) it was 0.232; with BI-2536 + Luminespib (first compound 0.3162 µM) it was 0.188. Also, in the test with BI-2536 + Luminespib (first compound 1 µM), the relative viability was 0.168.
